Test results as given in the supplement of paper PMC11208160.

Test: recombinant barcode read abundance after kanamycin selection (control-corrected) (log10(CPM+1)); higher = more efficient recombination; sequences stand for … in AGTGCAGAGAAAATCGGCCAGTTTTCTCTGCCTGCAGTCCGCATGCCGT…AGATTTATGCAGCGGACTGCCTTTCTCCCAAAGTGATAAACCGGACAGTATCATGGACCGGTTTTCCCGGTAATCCGTATTTGCAAGGTTGGTTTCACT; site = the 11-nt target
Procedure: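 Pooled E. coli target-specificity screen for the IS621 bridge recombinase. Each library plasmid pairs an 11-nt target (CT core) with a bridge RNA whose target-binding loop (9-nt LTG + 4-nt RTG) is reprogrammed; the rest of the 177-nt WT IS621 bridge RNA scaffold is fixed. The plasmid is co-electroporated with a WT donor plasmid; recombinase is induced with 0.1 mM IPTG and recombinants are selected on kanamycin. Recombinant barcodes are sequenced, converted to CPM, averaged over two biological replicates and corrected by the unselected control CPM. Molecule = full bridge RNA written as DNA: LTG = specificity nt 1-9, RTG = reverse complement of specificity nt 8-11, in the WT scaffold.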
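Further: IS621 recombinase and bridge RNA in Escherichia coli cells.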

Sequence	recombinant barcode read abundance (log10)
AAGTTTCCTTGGGTTCTAACCTGTTGCGT (site AAGTTTCCTAC)	0.923
AAGTTTCCTTGGGTTCTAACCTGTTGCGT (site ACGTTTCCTAT)	0.102
AATACCTCTTGGGTTCTAACCTGTTGCCT (site AATACCTCTAG)	1.03
AATACCTCTTGGGTTCTAACCTGTTGCCT (site ACTACCTCTAG)	0.0183
AATACCTCTTGGGTTCTAACCTGTTGCCT (site AGTACCTCTAG)	0.0751
AATACCTCTTGGGTTCTAACCTGTTGCCT (site ATTACCTCTAG)	0.0243
AATACTACTTGGGTTCTAACCTGTTGCCT (site AATACTACTAG)	1.04
AATACTACTTGGGTTCTAACCTGTTGCCT (site ACTACTACTAG)	0.0229
AATACTACTTGGGTTCTAACCTGTTGCCT (site AGTACTACTAG)	0.0104
AATACTACTTGGGTTCTAACCTGTTGCCT (site ATTACTACTAG)	0
AATACTACTTGGGTTCTAACCTGTTGCTG (site AATACTACTCA)	0.256
AATACTACTTGGGTTCTAACCTGTTGCTG (site AGTACTCCTCA)	0.196
AATAGTGCTTGGGTTCTAACCTGTTGCCT (site AATAGTGCTAG)	0.203
AATAGTGCTTGGGTTCTAACCTGTTGCCT (site ACTAGTGCTAG)	0.101
AATAGTGCTTGGGTTCTAACCTGTTGCCT (site AGTAGTGCTAG)	0.176
AATAGTGCTTGGGTTCTAACCTGTTGCCT (site ATTAGTGCTAG)	0.045

Sequence	recombinant barcode read abundance (log10)
AATCGAACTTGGGTTCTAACCTGTTGCCT (site AATCGAACTAG)	0.297
AATCGAACTTGGGTTCTAACCTGTTGCCT (site GATCGAACTAG)	0.15
AATCTAACTTGGGTTCTAACCTGTTGCCT (site AATCTAACTAG)	0.527
AATCTAACTTGGGTTCTAACCTGTTGCCT (site GGCGCCTCTGC)	0.538
AATCTGTCTTGGGTTCTAACCTGTTGCGT (site AATCTGTCTAC)	1.8
AATCTGTCTTGGGTTCTAACCTGTTGCGT (site TAGCTGTCTAC)	0.149
AATGATTCTTGGGTTCTAACCTGTTGCGT (site AATGATTCTAC)	2.27
AATGATTCTTGGGTTCTAACCTGTTGCGT (site GGGCCGGCTCG)	0.433
AATGCATCTTGGGTTCTAACCTGTTGCCT (site AATGAATCTAG)	0.0891
AATGCATCTTGGGTTCTAACCTGTTGCCT (site AATGCATCTAG)	0.285
AATGCATCTTGGGTTCTAACCTGTTGCCT (site AATGGATCTAG)	0.054
AATGCATCTTGGGTTCTAACCTGTTGCCT (site AATGTATCTAG)	0.0299
AATGCTACTTGGGTTCTAACCTGTTGCCA (site AAAACTACTTG)	0.127
AATGCTACTTGGGTTCTAACCTGTTGCCA (site AATGCTACTTG)	0.266
AATGGATCTTGGGTTCTAACCTGTTGCCT (site AATGAATCTAG)	0.0825
AATGGATCTTGGGTTCTAACCTGTTGCCT (site AATGCATCTAG)	0.0416
